The values below come from patent publication US11884661B2, “3-substituted propionic acids as αV integrin inhibitors” (BRISTOL-MYERS SQUIBB COMPANY, priority 2016, dated 2024).

Assay [1] addresses human αVβ3 (Homo sapiens, UniProt P05106+P06756). The assay can be described thus: human αVβ3 HTRF binding assay. The protocol:
All binding assays used the HTRF (homogeneous time resolved fluorescence) technology from Cisbio International, therefore all assays are described as HTRF binding assays. The assay results for the Examples are listed above together with the characterization data. The HTRF binding assays are established for the following integrins: human αVβ6, human αVβ1, human αVβ3, human αVβ5, and human αVβ8. All assays used the following assay buffer: 20 mM Tris, pH 7.4, 1 mM MgCl2, 1 mM MnCl2, 0.01% Tween 20, and 0.01% BSA. Alternatively, a SPA-based assay was used for evaluation of receptor binding.
The following describes the components and a representative procedure for the human αVβ6 HTRF binding assay: Recombinant human αVβ6 Integrin (R & D systems, 3817-AV) was biotinylated. Biotinylated human αVβ6 Integrin was added to assay vessel at a final concentration of 1.25 nM. FITC-conjugated fibronectin (Cytoskeleton, FNR02) was then added at the final concentration of 5 nM. The mixture was centrifuged at 600 rpm for three minutes using Thermo Fisher Heraeus Multifuge X3 centrifuge and then incubated at RT for an hour. Streptavidin Terbium (Cisbio international 610STLB) was then added at the final concentration of 0.625 nM. The resulting mixture was centrifuged at 600 rpm for three minutes using Thermo Fisher Heraeus Multifuge X3 centrifuge and then incubated at room temperature overnight in dark before reading HTRF signals.

In assay [2] the target is T1, human αVβ6 (Homo sapiens, UniProt P06756+P18564).
T1 construct: purchased R & D systems 3817-AV
T1 sequence (P06756 31-992 limits assumed): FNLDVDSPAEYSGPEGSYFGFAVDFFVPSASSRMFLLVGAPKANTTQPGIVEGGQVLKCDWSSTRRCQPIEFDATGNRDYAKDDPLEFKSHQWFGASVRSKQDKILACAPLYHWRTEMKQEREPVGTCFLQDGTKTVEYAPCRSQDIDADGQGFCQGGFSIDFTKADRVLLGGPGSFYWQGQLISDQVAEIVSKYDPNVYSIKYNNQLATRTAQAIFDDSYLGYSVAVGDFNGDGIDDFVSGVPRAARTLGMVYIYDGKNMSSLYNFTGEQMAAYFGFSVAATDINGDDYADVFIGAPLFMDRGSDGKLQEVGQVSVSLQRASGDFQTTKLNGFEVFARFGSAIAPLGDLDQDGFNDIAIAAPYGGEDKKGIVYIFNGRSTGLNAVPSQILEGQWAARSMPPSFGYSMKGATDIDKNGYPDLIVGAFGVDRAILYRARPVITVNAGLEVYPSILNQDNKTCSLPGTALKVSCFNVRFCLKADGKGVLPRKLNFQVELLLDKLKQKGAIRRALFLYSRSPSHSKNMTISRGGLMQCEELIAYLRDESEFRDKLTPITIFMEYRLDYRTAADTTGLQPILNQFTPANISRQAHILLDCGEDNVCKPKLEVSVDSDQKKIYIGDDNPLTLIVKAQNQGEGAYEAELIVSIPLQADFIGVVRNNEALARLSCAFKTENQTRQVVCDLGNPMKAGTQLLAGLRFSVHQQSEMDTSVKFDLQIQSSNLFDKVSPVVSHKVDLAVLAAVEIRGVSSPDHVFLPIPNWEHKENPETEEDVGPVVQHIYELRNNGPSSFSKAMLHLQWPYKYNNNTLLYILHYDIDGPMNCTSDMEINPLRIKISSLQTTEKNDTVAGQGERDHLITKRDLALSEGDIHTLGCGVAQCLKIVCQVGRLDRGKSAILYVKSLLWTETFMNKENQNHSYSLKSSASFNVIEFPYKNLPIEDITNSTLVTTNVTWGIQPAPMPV
T1 sequence (P18564 22-707 limits assumed): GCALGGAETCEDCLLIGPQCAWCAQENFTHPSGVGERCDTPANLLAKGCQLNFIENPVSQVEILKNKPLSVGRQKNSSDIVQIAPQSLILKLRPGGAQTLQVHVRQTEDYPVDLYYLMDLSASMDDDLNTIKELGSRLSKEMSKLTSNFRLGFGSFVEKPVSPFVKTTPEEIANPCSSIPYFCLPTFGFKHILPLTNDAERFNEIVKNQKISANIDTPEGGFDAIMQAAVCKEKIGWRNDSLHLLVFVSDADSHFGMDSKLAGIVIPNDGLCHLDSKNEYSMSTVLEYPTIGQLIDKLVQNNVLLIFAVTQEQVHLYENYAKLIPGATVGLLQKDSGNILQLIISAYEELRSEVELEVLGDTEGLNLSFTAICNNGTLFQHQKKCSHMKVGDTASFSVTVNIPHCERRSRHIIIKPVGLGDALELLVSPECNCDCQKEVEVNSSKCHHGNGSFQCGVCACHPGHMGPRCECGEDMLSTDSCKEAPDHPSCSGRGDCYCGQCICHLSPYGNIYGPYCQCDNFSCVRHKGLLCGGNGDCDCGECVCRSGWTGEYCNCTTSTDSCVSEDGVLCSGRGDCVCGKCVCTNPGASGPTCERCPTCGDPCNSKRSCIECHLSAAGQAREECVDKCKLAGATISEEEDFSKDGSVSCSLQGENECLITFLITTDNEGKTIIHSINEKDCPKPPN
The assay can be described thus: human αVβ6 HTRF binding assay. Particulars: recombinant human αVβ6 integrin, FITC-conjugated fibronectin. A digest of the protocol: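 Biotinylated recombinant αVβ6 (1.25 nM final) incubated with FITC-fibronectin (5 nM) 1 h at RT, then streptavidin-terbium (0.625 nM) added and incubated overnight at RT in the dark before HTRF read. Buffer: 20 mM Tris pH 7.4, 1 mM MgCl2, 1 mM MnCl2, 0.01% Tween 20, 0.01% BSA.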
A general note: TR-FRET usually uses a lanthanide donor and a delayed reading to cut background.

Assay [3] concerns the target human αVβ5 (Homo sapiens, UniProt P06756+P18084). The assay can be described thus: human αVβ5 HTRF binding assay. The procedure: (§1) All binding assays used the HTRF (homogeneous time resolved fluorescence) technology from Cisbio International, therefore all assays are described as HTRF binding assays. The assay results for the Examples are listed above together with the characterization data. The HTRF binding assays are established for the following integrins: human αVβ6, human αVβ1, human αVβ3, human αVβ5, and human αVβ8. All assays used the following assay buffer: 20 mM Tris, pH 7.4, 1 mM MgCl2, 1 mM MnCl2, 0.01% Tween 20, and 0.01% BSA. Alternatively, a SPA-based assay was used for evaluation of receptor binding. […]

The target of assay [4] is human αVβ8 (Homo sapiens, UniProt P06756+P26012). The assay can be described thus: human αVβ8 HTRF binding assay. The protocol:
as §1

The structures appear in SMILES notation. Where a name gives a salt, the structure may show the parent alone.

Chain of human αVβ3 (P06756 31-992 limits assumed): as the sequence (P06756 31-992 limits assumed) above
Chain of human αVβ3 (P05106 27-718 limits assumed): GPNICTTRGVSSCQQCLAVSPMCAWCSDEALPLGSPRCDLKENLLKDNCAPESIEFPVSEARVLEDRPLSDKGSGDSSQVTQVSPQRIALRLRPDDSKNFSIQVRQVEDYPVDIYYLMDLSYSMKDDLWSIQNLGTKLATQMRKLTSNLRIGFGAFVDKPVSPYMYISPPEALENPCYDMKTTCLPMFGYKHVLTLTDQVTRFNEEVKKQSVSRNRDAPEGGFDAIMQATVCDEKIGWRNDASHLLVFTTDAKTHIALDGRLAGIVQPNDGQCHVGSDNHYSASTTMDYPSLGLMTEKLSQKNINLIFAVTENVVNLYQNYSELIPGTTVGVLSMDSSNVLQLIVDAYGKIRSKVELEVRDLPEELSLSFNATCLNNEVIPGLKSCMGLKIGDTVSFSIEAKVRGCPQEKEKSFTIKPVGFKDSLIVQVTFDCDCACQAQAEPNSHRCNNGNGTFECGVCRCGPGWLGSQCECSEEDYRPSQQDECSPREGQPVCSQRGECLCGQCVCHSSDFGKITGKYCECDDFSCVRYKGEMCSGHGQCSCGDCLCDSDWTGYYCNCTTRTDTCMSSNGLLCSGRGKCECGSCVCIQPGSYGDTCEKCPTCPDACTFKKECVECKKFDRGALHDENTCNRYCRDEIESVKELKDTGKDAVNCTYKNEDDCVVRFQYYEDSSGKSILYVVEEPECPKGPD
Chain of human αVβ5 (P06756 31-992 limits assumed): as the sequence (P06756 31-992 limits assumed) above
Chain of human αVβ5 (P18084 24-719 limits assumed): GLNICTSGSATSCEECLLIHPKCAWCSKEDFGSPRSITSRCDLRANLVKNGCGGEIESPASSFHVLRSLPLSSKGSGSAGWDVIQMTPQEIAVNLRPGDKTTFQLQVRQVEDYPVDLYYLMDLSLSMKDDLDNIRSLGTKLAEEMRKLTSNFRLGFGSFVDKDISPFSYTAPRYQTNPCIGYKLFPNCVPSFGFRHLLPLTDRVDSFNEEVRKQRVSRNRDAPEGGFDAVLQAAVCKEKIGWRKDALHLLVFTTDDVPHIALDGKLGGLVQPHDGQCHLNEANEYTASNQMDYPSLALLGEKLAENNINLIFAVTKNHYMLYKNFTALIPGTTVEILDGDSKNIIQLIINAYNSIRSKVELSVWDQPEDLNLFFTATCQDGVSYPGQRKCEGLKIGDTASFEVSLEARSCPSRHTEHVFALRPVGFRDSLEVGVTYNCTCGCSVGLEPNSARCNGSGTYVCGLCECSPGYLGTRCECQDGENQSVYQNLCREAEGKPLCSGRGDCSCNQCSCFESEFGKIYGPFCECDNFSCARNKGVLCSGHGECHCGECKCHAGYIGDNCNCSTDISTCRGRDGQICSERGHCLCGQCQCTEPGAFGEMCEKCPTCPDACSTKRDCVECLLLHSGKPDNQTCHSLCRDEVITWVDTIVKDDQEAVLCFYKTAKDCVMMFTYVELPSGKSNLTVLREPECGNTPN
Chain of human αVβ8 (P06756 31-992 limits assumed): as the sequence (P06756 31-992 limits assumed) above
Chain of human αVβ8 (P26012 43-684 limits assumed): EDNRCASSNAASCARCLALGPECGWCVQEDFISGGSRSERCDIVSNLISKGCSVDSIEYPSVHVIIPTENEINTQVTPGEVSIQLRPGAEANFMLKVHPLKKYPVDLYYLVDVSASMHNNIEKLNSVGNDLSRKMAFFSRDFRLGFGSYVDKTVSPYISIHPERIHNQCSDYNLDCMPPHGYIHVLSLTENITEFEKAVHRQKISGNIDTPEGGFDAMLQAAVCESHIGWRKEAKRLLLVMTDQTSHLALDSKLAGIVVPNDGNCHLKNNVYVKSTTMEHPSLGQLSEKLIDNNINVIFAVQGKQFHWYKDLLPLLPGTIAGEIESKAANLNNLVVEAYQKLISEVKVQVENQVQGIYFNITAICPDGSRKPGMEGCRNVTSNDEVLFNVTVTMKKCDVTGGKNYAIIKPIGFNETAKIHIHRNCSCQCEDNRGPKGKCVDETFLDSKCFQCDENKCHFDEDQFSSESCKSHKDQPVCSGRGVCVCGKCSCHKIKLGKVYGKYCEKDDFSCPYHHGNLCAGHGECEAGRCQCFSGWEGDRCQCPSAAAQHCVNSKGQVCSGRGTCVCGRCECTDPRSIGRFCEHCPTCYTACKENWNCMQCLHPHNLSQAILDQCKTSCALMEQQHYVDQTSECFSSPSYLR

On to `COc1ccc(C(CC(=O)O)n2ccc(OCCCc3ccc4c(n3)NCCC4)n2)cn1` (racemic) [Example 48, (±)-3-(6-Methoxypyridin-3-yl)-3-(3-(3-(5,6,7,8-tetrahydro-1,8-naphthyridin-2-yl)propoxy)-1H-pyrazol-1-yl)propanoic acid], for which the figures for the IC50 in assay [1], in assay [2] and in assay [3] were 7.5 nM, 29 nM and 2.7 nM, respectively.

As for `COc1cncc(C(CC(=O)O)n2ccc(CCCc3ccc4c(n3)NCCC4)n2)c1` (single isomer, unassigned) [Example 64, 3-(5-methoxypyridin-3-yl)-3-(3-(3-(5,6,7,8-tetrahydro-1,8-naphthyridin-2-yl)propyl)-1H-pyrazol-1-yl)propanoic acid], the half-maximal inhibitory concentration (IC50) (as a rule, the concentration needed to halve the response being measured) worked out at 3.8 nM in assay [1], 110 nM in assay [4] and 19 nM in assay [2].

As to `COc1cncc(C(CC(=O)O)n2ccc(CCCc3ccc4c(n3)NCCC4)n2)c1` (single isomer, unassigned) [Example 65, 3-(5-methoxypyridin-3-yl)-3-(3-(3-(5,6,7,8-tetrahydro-1,8-naphthyridin-2-yl)propyl)-1H-pyrazol-1-yl)propanoic acid], the IC50 in assay [1] is 4.3 nM; in assay [2] it was 410 nM; in assay [3], 1.1 nM.

Take `Cn1cc([C@H](CC(=O)O)n2ccc(CCCc3ccc4c(n3)NCCC4)n2)ccc1=O` [Example 45, (S)-3-(1-Methyl-6-oxo-1,6-dihydropyridin-3-yl)-3-(3-(3-(5,6,7,8-tetrahydro-1,8-naphthyridin-2-yl)propyl)-1H-pyrazol-1-yl)propanoic acid ditrifluoroacetic acid salt]: the results for the half-inhibitory concentration (IC50) in assay [1], in assay [4] and in assay [2] were 1.6 nM, 3020 nM and 1.6 nM, respectively.

Turning to `CCOC(=O)C[C@@H](c1ccc(OC)nc1)n1ccc(CCCc2ccc3c(n2)NCCC3)n1` [Example 47, Ethyl (S)-3-(6-methoxypyridin-3-yl)-3-(3-(3-(5,6,7,8-tetrahydro-1,8-naphthyridin-2-yl)propyl)-1H-pyrazol-1-yl)propanoate], the IC50 in assay [1] worked out at 1120 nM; in assay [2], 11 nM; in assay [3], 270 nM.

Take `O=C(O)C[C@@H](c1cnc(O)nc1)n1ccc(CCCc2ccc3c(n2)NCCC3)n1` [Example 85, (S)-3-(2-hydroxypyrimidin-5-yl)-3-(3-(3-(5,6,7,8-tetrahydro-1,8-naphthyridin-2-yl)propyl)-1H-pyrazol-1-yl)propanoic acid]: the half-inhibitory concentration (IC50) in assay [2] was 52 nM.

In the case of `Cc1ncc([C@H](CC(=O)O)n2ccc(CCC[C@H]3CCc4cccnc4N3)n2)cn1` [Example 86, (S)-3-(2-methylpyrimidin-5-yl)-3-(3-(3-((S)-1,2,3,4-tetrahydro-1,8-naphthyridin-2-yl)propyl)-1H-pyrazol-1-yl)propanoic acid], in assay [2], the half-maximal inhibitory concentration (IC50) is 270 nM.

Consider `Cc1ncc(C(CC(=O)O)n2nccc2CCC[C@H]2CCc3cccnc3N2)cn1` (stereo partly drawn) [Example 87, 3-(2-methylpyrimidin-5-yl)-3-(5-(3-((S)-1,2,3,4-tetrahydro-1,8-naphthyridin-2-yl)propyl)-1H-pyrazol-1-yl)propanoic acid], for which the IC50 in assay [2] turned out to be 1380 nM.

Turning to `Cc1ncc([C@H](CC(=O)O)n2ccc(CCC[C@@H]3CCc4cccnc4N3)n2)cn1` [Example 88, (S)-3-(2-methylpyrimidin-5-yl)-3-(3-(3-((R)-1,2,3,4-tetrahydro-1,8-naphthyridin-2-yl)propyl)-1H-pyrazol-1-yl)propanoic acid], the IC50 in assay [2] is 170 nM.

In the case of `COc1ncc([C@H](CC(=O)O)n2ccc(CCC[C@H]3CCc4cccnc4N3)n2)cn1` [Example 89, (S)-3-(2-methoxypyrimidin-5-yl)-3-(3-(3-((S)-1,2,3,4-tetrahydro-1,8-naphthyridin-2-yl)propyl)-1H-pyrazol-1-yl)propanoic acid], the IC50 in assay [2] amounted to 100 nM.

`COc1ncc([C@H](CC(=O)O)n2ccc(CCC[C@@H]3CCc4cccnc4N3)n2)cn1` [Example 90, (S)-3-(2-methoxypyrimidin-5-yl)-3-(3-(3-((R)-1,2,3,4-tetrahydro-1,8-naphthyridin-2-yl)propyl)-1H-pyrazol-1-yl)propanoic acid]: in assay [2], the IC50 is 220 nM.

Consider `Cc1ncc(C(CC(=O)O)n2ccc(CCCc3ccc4c(n3)NCCCC4)n2)cn1` (stereo not drawn) [Example 98, 3-(2-methylpyrimidin-5-yl)-3-(3-(3-(6,7,8,9-tetrahydro-5H-pyrido[2,3-b]azepin-2-yl)propyl)-1H-pyrazol-1-yl)propanoic acid], for which, in assay [2], the IC50 came to 595 nM.

As to `O=C(O)C[C@@H](c1ccc(=O)n(Cc2ccccc2)c1)n1ccc(CCCc2ccc3c(n2)NCCC3)n1` [Example 109, (S)-3-(1-benzyl-6-oxo-1,6-dihydropyridin-3-yl)-3-(3-(3-(5,6,7,8-tetrahydro-1,8-naphthyridin-2-yl)propyl)-1H-pyrazol-1-yl)propanoic acid], the IC50 in assay [2] was 4.2 nM.

With `O=C(O)C[C@@H](c1ccc(OCc2ccccc2)nc1)n1ccc(CCCc2ccc3c(n2)NCCC3)n1` [Example 110, (S)-3-(6-(benzyloxy)pyridin-3-yl)-3-(3-(3-(5,6,7,8-tetrahydro-1,8-naphthyridin-2-yl)propyl)-1H-pyrazol-1-yl)propanoic acid], the 50% inhibitory concentration (IC50) in assay [2] came out at 9.3 nM.

Regarding `O=C(O)C[C@@H](c1ccc(=O)n(CC2CC2)c1)n1ccc(CCCc2ccc3c(n2)NCCC3)n1` [Example 111, (S)-3-(1-(cyclopropylmethyl)-6-oxo-1,6-dihydropyridin-3-yl)-3-(3-(3-(5,6,7,8-tetrahydro-1,8-naphthyridin-2-yl)propyl)-1H-pyrazol-1-yl)propanoic acid], in assay [2], the half-inhibitory concentration (IC50) came out at 19 nM.

With `O=C(O)C[C@@H](c1ccc(OCC2CC2)nc1)n1ccc(CCCc2ccc3c(n2)NCCC3)n1` [Example 112, (S)-3-(6-(cyclopropylmethoxy)pyridin-3-yl)-3-(3-(3-(5,6,7,8-tetrahydro-1,8-naphthyridin-2-yl)propyl)-1H-pyrazol-1-yl)propanoic acid], in assay [2], the concentration for half-maximal inhibition (IC50) was 3.5 nM.

With `COc1ccc(C(CC(=O)O)c2ccn(CCCc3ccc4c(n3)NCCC4)n2)cn1` (stereo not drawn) [Example 113, 3-(6-methoxypyridin-3-yl)-3-(1-(3-(5,6,7,8-tetrahydro-1,8-naphthyridin-2-yl)propyl)-1H-pyrazol-3-yl)propanoic acid], in assay [2], the IC50 turned out to be 35 nM.

As for `Cc1ncc([C@@H](CC(=O)O)n2cc(F)c(CCCc3ccc4c(n3)NCCC4)n2)cn1` [Example 114, (R)-3-(4-fluoro-3-(3-(5,6,7,8-tetrahydro-1,8-naphthyridin-2-yl)propyl)-1H-pyrazol-1-yl)-3-(2-methylpyrimidin-5-yl)propanoic acid], the IC50 in assay [2] is 4800 nM.

Regarding `COc1ccc(C(CC(=O)O)c2cc(CCCc3ccc4c(n3)NCCC4)[nH]n2)cc1F` (stereo not drawn) [Example 116, 3-(3-Fluoro-4-methoxyphenyl)-3-(5-(3-(5,6,7,8-tetrahydro-1,8-naphthyridin-2-yl)propyl)-1H-pyrazol-3-yl)propanoic acid], in assay [2], the IC50 amounted to 47 nM.

For `COc1ncc(C(CC(=O)O)c2nc(CCCc3ccc4c(n3)NCCC4)cs2)cn1` (stereo not drawn) [Example 145, 3-(2-methoxypyrimidin-5-yl)-3-(4-(3-(5,6,7,8-tetrahydro-1,8-naphthyridin-2-yl)propyl)thiazol-2-yl)propanoic acid], the IC50 in assay [2] amounted to 4.5 nM.

In the case of `COc1ccc(C(CC(=O)O)c2csc(CCCc3ccc4c(n3)NCCC4)n2)cc1F` (stereo not drawn) [Example 153, 3-(3-fluoro-4-methoxyphenyl)-3-(2-(3-(5,6,7,8-tetrahydro-1,8-naphthyridin-2-yl)propyl)thiazol-4-yl)propanoic acid], the half-inhibitory concentration (IC50) in assay [2] came to 54 nM.

For `COc1ccc(C(CC(=O)O)c2nc(CCCc3ccc4c(n3)NCCC4)co2)cc1F` (stereo not drawn) [Example 178, 3-(3-fluoro-4-methoxyphenyl)-3-(4-(3-(5,6,7,8-tetrahydro-1,8-naphthyridin-2-yl)propyl)oxazol-2-yl)propanoic acid], in assay [2], the IC50 turned out to be 1.4 nM.

For `COc1ccc(C(CC(=O)O)c2nc(CCCCc3ccc4c(n3)NCCC4)c(C)o2)cc1F` (stereo not drawn) [Example 181, 3-(3-fluoro-4-methoxyphenyl)-3-(5-methyl-4-(4-(5,6,7,8-tetrahydro-1,8-naphthyridin-2-yl)butyl)oxazol-2-yl)propanoic acid], the half-inhibitory concentration (IC50) in assay [2] stood at 1060 nM.
